In PMC4775225, “Bromodomain inhibition of the transcriptional coactivators CBP/EP300 as a therapeutic strategy to target the IRF4 network in multiple myeloma” (eLife, 2016):
Where two headings read alike, the source gives them in different places.

Assays:
[1] = molecular target: T1, full length BRD4 ZsGreen fusion protein (Homo sapiens, UniProt O60885); test: Bromodomain chromatin release assay, BRD4 (U2OS, high content imaging); format: cell-based; conditions: 2 hr, n = 2 biological replicates ± SEM, read-out: IC50 (μM), BRD4 chromatin release (EC50)
T1 construct: CBP: CBP-bromodomain/BRD9; BRD4: full length BRD4; expressed in transfected cells
Protocol: As described previously ([Huang et al., 2014]), this assay monitors the compound-dependent release and aggregation of a fusion protein consisting of a bromodomain and the fluorescent protein ZsGreen. For the BRD4 chromatin release assay, U2OS cells capable of inducibly expressing the full-length BRD4 protein in fusion with ZsG were generated using the pLVT3G/ZsGreen-BRD4/TO3G vector and maintained in blasticidin at 15 μg/ml. […] Therefore, the bromodomain (BD) of CBP was cloned into full length BRD9 (replacing the BRD9 BD) in frame with a ZsGreen fluorescent tag (ZsG). U2OS cells capable of inducibly expressing the ZsGreen-CBPBD fusion protein were generated by lentiviral delivery of the pLVT3G/BRD9-ZsG-CBPBD/TO3G vector, which contains both the inducible fusion protein and the tet transactivator. Cells were selected and maintained in the presence of 15 μg/ml blasticidin. 5000 cells/well were seeded in 384-well imaging plates in the presence of 2 μg/ml doxycycline to induce the expression of ZsG-fusion proteins. After 16 hr of incubation with doxycycline, fresh media containing serial dilution of compounds were added to the cells for 2 hr at 37°C. Cells were fixed with 4% paraformaldehyde (PFA) dissolved in PBS for 15 min at room temperature. Images of cells were acquired using ImageXpress Micro (Molecular Devices, Inc.; Sunnyvale, CA) and processed with the Transfluor Module of MetaXpress software. Average pits per cell values were obtained from four adjacent images in each well with two technical replicates for each compound concentration. Dose-response curves were generated by plotting the average pits per cell values at each dose and EC50 values were calculated by a four-parameter non-linear regression model in GraphPad Prism.

[2] = molecular target: T2, first bromodomain of BRD4 (BRD4-BD1) (Homo sapiens, UniProt O60885); test: AlphaLISA, acetylated peptide binding to BRD4-BD1
T2 construct: the first bromodomain of BRD4 (BRD4-BD1)
Protocol: Compound at varying concentrations were dispensed into 384 well Proxiplates (Perkin Elmer) using Echo technology (Labcyte, Inc.; Sunnyvale, CA). For CBP assays, 0.5 μM His-Flag-tagged CBP bromodomain (amino acids 1082–1197) was incubated with 0.003 μM H4-TetraAc-biotin for 20 min at room temperature in 1x reaction buffer (50 mM HEPES pH 7.5, 1 mM TCEP, 0.069 mM Brij-35, 150 mM NaCl, and 0.1 mg/ml BSA). Streptavidin acceptor beads and nickel donor beads (Perkin Elmer) were added to 15 μg/ml with a Combi Multidrop dispenser. Plates were sealed and incubated at 90 min in the dark at room temperature, and plates were read on an Envision plate reader (Perkin Elmer) according to manufacturer’s instructions. For the BET assays, the protocol was similar except that BET family bromodomains were used at 0.03 μM (BRD4-BD1) and incubated with 0.2 μM H4-TetraAc-biotin for 20 min in reaction buffer (40 mM HEPES pH7.0, 1 mM DTT, 0.069 mM Brij-35, 40 mM NaCl, and 0.1 mg/ml BSA). Streptavidin donor beads and Anti-Flag Acceptor beads (Perkin Elmer) were added to 10 μg/ml, and then plates were sealed and incubated in the dark for 60 min prior to reading on the Envision.

[3] = system: MYC mRNA; test: MYC mRNA expression, qRT-PCR; format: cell-based, human; conditions: for IC50: Homo sapiens, read-out: IC50, inhibition of MYC mRNA expression; for log2FC (MYC): 2.5 μM, 6 hr, log2 fold change relative to DMSO
Protocol: Total RNA was prepared with an RNeasy Mini Kit (Qiagen, Inc.; Hilden, Germany) with on column DNAse digestion and submitted to Ocean Ridge Biosciences (Palm Beach Gardens, FL) for sequencing and mapping. The data in RPKM for each gene with compound treatment was compared to DMSO treatment, and log2 fold changes were used for further analysis. Rank ordered gene lists were used for Gene Set Enrichment Analysis ([Subramanian et al., 2005]). RNA preparation, cDNA synthesis, and qRT-PCR were performed as described ([Mertz et al., 2011]). For dose titration experiments, cells in 96 -well plates were lysed in lysis buffer (1% Triton X-100, […] pH 2.5) and used directly for cDNA synthesis and qRT-PCR. Primer sequences can be found in Supplementary file 1.

[4] = system: AMO-1; test: Viability, resazurin, 6 days; format: cell-based, human; conditions: for GI50: Homo sapiens, AMO1, 144 h, AMO-1, myeloma, 6 days
Protocol: (§1) Cells were plated at 5000–10000 cells per well of 96-well plates containing titrations of the compounds as indicated. After incubation, the cells were incubated with 500 μg/ml resazurin (Sigma) in PBS for 2–8 hr, and fluorescence was measured (Ex 530 nm, Em 590 nm). Cell cycle analysis was performed as described previously ([Mertz et al., 2011]). For visualization, DNA content histograms were generated with GraphPad Prism. Dose-response curves were generated by plotting the normalized percent growth, percent sub-G1 and percent increase in G0/G1 at each dose values. GI50 values were determined as the concentration at which viability was 50% of the DMSO value and calculated by a four-parameter non-linear regression model in GraphPad Prism.

[5] = system: RS4;11; test: Viability, resazurin, 6 days; format: cell-based, human; conditions: for GI50: Homo sapiens, 144 h, RS4;11, ALL, 6 days
Protocol: as §1

[6] = system: OPM2; test: Viability, resazurin, 6 days; format: cell-based, human; conditions: for GI50: Homo sapiens, OPM-2, 144 h, OPM2, myeloma, 6 days
Protocol: as §1

[7] = system: MOLP-8; test: Viability, resazurin, 6 days; format: cell-based, human; conditions: for GI50: Homo sapiens, 144 h, MOLP-8, myeloma, 6 days
Protocol: as §1

[8] = system: KMM-1; test: Viability, resazurin, 6 days; format: cell-based, human; conditions: for GI50: Homo sapiens, 144 h, KMM-1, myeloma, 6 days
Protocol: as §1

[9] = system: RPMI-8226; test: Viability, resazurin, 6 days; format: cell-based, human; conditions: for GI50: Homo sapiens, 144 h, RPMI-8226, myeloma, 6 days
Protocol: as §1

[10] = system: LP-1; test: Viability, resazurin, 6 days; format: cell-based, human; conditions: for GI50: Homo sapiens, 144 h, LP-1, myeloma, 6 days
Protocol: as §1

[11] = system: KMS28BM; test: Viability, resazurin, 6 days; format: cell-based, human; conditions: for GI50: Homo sapiens, KMS-28BM, 144 h, myeloma, 6 days
Protocol: as §1

[12] = system: NCI-H929; test: Viability, resazurin, 6 days; format: cell-based, human; conditions: for GI50: Homo sapiens, 144 h, NCI-H929, myeloma, 6 days
Protocol: as §1

EC50 [1] [µM]	IC50 [2] [µM]	IC50 ([3]; OPM-2, OPM2, 6 hr) [µM]	IC50 ([3]; LP-1, 6 hr) [µM]	GI50 [5] [µM]	GI50 [9] [µM]	GI50 [12] [µM]	Structure (SMILES)	GI50 [4] [µM]	GI50 [6] [µM]	GI50 [7] [µM]	GI50 [8] [µM]	GI50 [10] [µM]	GI50 [11] [µM]	also measured
> 20	8.9 ± 0.06	6.1	11.3	15.6	14.6	3.8	CCC(=O)N1CCOc2c(cc(-c3ccc(OC)c(OC)c3)cc2OC[C@H]2CCCN(C)C2)C1 [I-CBP112]	9.39	2.82	3.52	> 20	1.51	4.44	–
18.7 ± 1.2	2.1 ± 0.3	2.3	2.5	9.99	3.44	1.68	COc1ccc(CCc2nc3cc(-c4c(C)noc4C)ccc3n2C[C@H](C)N2CCOCC2)cc1Cl [SGC-CBP30]	1.8	1.53	2.06	11.7	0.78	2.17	log2FC (MYC) ([3]; AMO1): -1.13; log2FC (MYC) ([3]; H929): -1.24; log2FC (MYC) ([3]; KMM1): -0.48; log2FC (MYC) ([3]; KMS28BM): -0.63; log2FC (MYC) ([3]; LP1): -1.07; log2FC (MYC) ([3]; MOLP8): -0.64; log2FC (MYC) ([3]; OPM2): -0.71; log2FC (MYC) ([3]; RPMI8226): -0.49; log2FC (MYC) ([3]; RS411): -0.56; log2GI50 ([4]; AMO1): 0.85; log2GI50 ([5]; RS411): 3.32; log2GI50 ([6]; OPM2): 0.61; log2GI50 ([7]; MOLP8): 1.04; log2GI50 ([8]; KMM1): 3.54; log2GI50 ([9]; RPMI8226): 1.78; log2GI50 ([10]; LP1): -0.36; log2GI50 [11]: 1.12; log2GI50 ([12]; H929): 0.75
